Source: patent US10562864B2, “Chemical modulators of immune checkpoints and therapeutic use” (Duke University, priority 2015, dated 2020)
Entries after “also recorded” stand apart in the source; their conditions may differ.

Experiments:
PD1-GFP [1] = biological target: T1, PD1-GFP (Homo sapiens, UniProt Q15116); test: Internalization assay (PD1-GFP), confocal imaging of PD1-GFP stable U2OS cells; type: cell-based; design: Internalized PD1-GFP punctate; 6 hr (10 μM): key to the marks not given beside the values; details: 37° C.
T1 construct: expressed in transfected cells; host or cells: U2OS
T1 sequence (Q15116 25-288): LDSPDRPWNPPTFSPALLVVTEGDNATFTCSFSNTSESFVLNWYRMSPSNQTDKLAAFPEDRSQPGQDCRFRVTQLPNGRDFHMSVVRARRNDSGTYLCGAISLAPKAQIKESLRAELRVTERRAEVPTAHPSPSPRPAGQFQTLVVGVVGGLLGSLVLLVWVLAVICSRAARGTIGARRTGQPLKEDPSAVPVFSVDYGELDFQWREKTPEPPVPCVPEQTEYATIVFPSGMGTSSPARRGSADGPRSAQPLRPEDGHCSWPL
Method: U2OS cells were transfected with PD1-GFP and stable receptor-expressing cells were selected using 0.5 mg/ml Geneticin in the culture medium. […] The plates were incubated overnight at 37° C. in 5% CO2. The following day, chemical compounds (10 mM in DMSO) were diluted 1:200 in culture medium, 6.25 μL of which was then added to each well of cells to produce a 1:1000 dilution overall and final compound concentration of 10 μM per well. The cells were incubated with compound for 6 h at 37° C. prior to fixation in PBS containing 0.5% paraformaldehyde for 30 min at room temperature. The wells were then washed with PBS three times and stored at 4° C. The cells were imaged using a Zeiss LSM-510 confocal microscope.

phospho-Erk1/2 = test: Western blot analysis of phospho-Erk1/2 levels in 4T1-PD1 cells; type: cell-based, murine; details: 24 hours, FIG. 11, 12
Method: 4T1-PD1 cells (30K cells/per well) were seeded in 12-well plates overnight. On the following day, the compounds were added and the cells were incubated for 24 hours. The cells were then lysed in SDS sample buffer and analyzed by western blots.
4T1-PD1 cells (30K cells/per well) were seeded in 12-well plates overnight. On the following day, the compounds were added and the cells were incubated for 24 hours. The cells were then lysed in SDS sample buffer and analyzed by western blot.
4T1 Murine breast cancer cells stably expressing PD1 were seeded in 12-well plates (30 k cells/well) and incubated overnight. On the next day, compounds were added to produce the final concentration desired and the cells were incubated for […]. Cells were lysed with SDS sample buffer and lysates were subjected to western blot analysis

PD-1 = test: Western blot analysis of PD-1 protein level in 4T1 cells stably expressing PD-1; type: cell-based, murine; design: key to Decrease in PD1 protein level by western blot at 24 h at 5 μM: † 3+ Scale with + least and +++ most; † 3+ Scale with + least and +++ most; † 3+ Scale with + least and +++ most; key to Decrease in PD1 protein level by western blot at 4 days at 3 μM: ‡ 3+ Scale with + least and +++ most; ‡ 3+ Scale with + least and +++ most; ‡ 3+ Scale with + least and +++ most; details: for Decrease in PD1 protein level by western blot at 4 days at 3 μM / Decrease in PD1 protein level by western blot at 24 h at 5 μM / PD-1 protein levels by western blot after 4 days: 4T1-PD1 cells; for PD-1 protein levels by western blot at 24 hours: 4T1 cells stably expressing PD-1, FIG. 9, 10, 12; for PD-1 protein levels by western blot after 4 days: FIG. 13
Method: Murine breast cancer cells were grown in DMEM medium supplemented with 10% FBS and penicillin and streptomycin antibiotics at 37° C. in 5% CO2.
4T1 Murine breast cancer cells stably expressing PD1 were seeded in 12-well plates (30 k cells/well) and incubated overnight. […] Cells were lysed with SDS sample buffer and lysates were subjected to western blot analysis
4T1-PD1 cells were seeded in 12-well plates (100 k cells/well) overnight. On the next day, compounds were added and the cells incubated for 4 days. The cells were then lysed in SDS sample buffer and lysates were subjected to western blot analysis

PD1-GFP [2] = biological target: T1, PD1-GFP; test: Internalization assay (PD1-GFP), confocal imaging of PD1-GFP stable U2OS cells; type: cell-based; details: 0.25 μM to 10 μM, 6 h, see FIG. 6/7
PDL1-GFP = biological target: T2, PDL1-GFP (Homo sapiens, UniProt Q9NZQ7); test: Confocal imaging of PDL1-GFP stable U2OS cells; type: cell-based; details: 10 μM, 6 h, 37° C., FIG. 2
T2 construct: expressed in transfected cells; host or cells: U2OS
T2 sequence (Q9NZQ7 19-290): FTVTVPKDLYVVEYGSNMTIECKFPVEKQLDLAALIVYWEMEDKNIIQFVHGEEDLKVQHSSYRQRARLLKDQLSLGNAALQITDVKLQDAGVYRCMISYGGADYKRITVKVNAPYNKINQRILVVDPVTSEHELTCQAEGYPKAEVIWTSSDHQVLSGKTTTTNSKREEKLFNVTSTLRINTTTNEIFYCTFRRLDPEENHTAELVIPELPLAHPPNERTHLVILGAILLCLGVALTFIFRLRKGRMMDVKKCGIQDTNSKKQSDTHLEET

CTLA4-GFP = biological target: T3, CTLA4-GFP (Homo sapiens, UniProt P16410); test: CTLA4-GFP internalization, confocal imaging of CTLA4-GFP stable U2OS cells; type: cell-based; design: key to Internalized CTLA4-GFP punctate; 6 hr (10 μM): **4+ Scale with + least and ++++ most; **4+ Scale with + least and ++++ most; **4+ Scale with + least and ++++ most; **4+ Scale with + least and ++++ most
T3 construct: expressed in transfected cells; host or cells: U2OS
T3 sequence (P16410 36-223): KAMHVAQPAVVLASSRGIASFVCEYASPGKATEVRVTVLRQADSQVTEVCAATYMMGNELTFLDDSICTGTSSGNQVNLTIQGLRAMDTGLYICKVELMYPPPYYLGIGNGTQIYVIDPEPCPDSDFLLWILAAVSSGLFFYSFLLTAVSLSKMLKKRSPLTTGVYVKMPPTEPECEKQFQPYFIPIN

Row | SMILES | Internalized PD1-GFP punctate; 6 hr (10 μM) (PD1-GFP [1]) | Decrease in PD1 protein level by western blot at 24 h at 5 μM (PD-1) | PD-1 protein levels by western blot at 24 hours (PD-1) | further results
1 | O=[N+]([O-])c1ccc(-c2nnc(-c3cc(Cl)ccc3O)[nH]2)cc1 [Compound 1, 4-Chloro-2-(5-(4-nitrophenyl)-4H-1,2,4-triazol-3-yl)phenol] | ++++ |  |  | 
2 | O=[N+]([O-])c1ccc2[nH]c(-c3cc(Cl)ccc3O)nc2c1 [Compound 2, 4-Chloro-2-(5-nitro-1H-benzo[d]imidazol-2-yl)phenol] | ++++ | ++ | lower PD-1 and phopho-Erk1/2 protein levels | phospho-Erk1/2 levels by western blot (phospho-Erk1/2): lower PD-1 and phopho-Erk1/2 protein levels; Decrease in PD1 protein level by western blot at 4 days at 3 μM (PD-1): +++; PD-1 protein levels by western blot after 4 days (PD-1): lower PD-1 protein levels
3 | O=[N+]([O-])c1ccc2[nH]c(-c3cc(F)ccc3O)nc2c1 [Compound 3, 4-fluoro-2-(5-nitro-1H-benzo[d]imidazol-2-yl)phenol] |  | ++ | lower PD-1 and phopho-Erk1/2 protein levels | phospho-Erk1/2 levels by western blot (phospho-Erk1/2): lower PD-1 and phopho-Erk1/2 protein levels; Decrease in PD1 protein level by western blot at 4 days at 3 μM (PD-1): +++; PD-1 protein levels by western blot after 4 days (PD-1): lower PD-1 protein levels
4 | O=S(=O)(Nc1ccc(C(F)(F)F)cc1Cl)c1cc(Cl)ccc1O [Compound 4, 5-Chloro-N-(2-chloro-4-(trifluoromethyl)phenyl)-2-hydroxybenzenesulfonamide] | ++ |  |  | 
5 | O=C(Nc1ccc(C(F)(F)F)cc1Cl)c1cc(Cl)ccc1O [Compound 5, 5-chloro-N-(2-chloro-4-(trifluoromethyl)phenyl)-2-hydroxybenzamide] | ++++ |  |  | 
6 | O=C(Nc1cc(Cl)cc(Cl)c1)c1cc(Cl)ccc1O [Compound 6, 5-chloro-N-(3,5-dichlorophenyl)-2-hydroxybenzamide] | ++++ |  |  | 
7 | CCCCCCCC(=O)Oc1ccc(Cl)cc1C(=O)Nc1ccc([N+](=O)[O-])cc1Cl [Compound 7, 4-Chloro-2-((2-chloro-4-nitrophenyl)carbamoyl)phenyl octanoate] | ++++ | ++ | lower PD-1 protein levels | EC50 (PD1-GFP [2]): 3 µM
8 | Cc1ccc(S(=O)(=O)Nc2ccc(Br)cc2C(=O)Nc2ccc(C(F)(F)F)cc2)cc1 [Compound 8, 5-Bromo-2-((4-methylphenyl)sulfonamido)-N-(4-(trifluoromethyl)phenyl)benzamide] | ++++ |  |  | 
9 | O=C(Nc1ccc(C(F)(F)F)cc1)c1cc(Cl)cc2[nH]c(C(F)(F)F)nc12 [Compound 9, 6-Chloro-2-(trifluoromethyl)-N-(4-(trifluoromethyl)phenyl)-1H-benzo[d]imidazole-4-carboxamide] | ++++ |  |  | 
10 | O=C(Nc1ccc([N+](=O)[O-])cc1Cl)c1cc(Cl)ccc1O [Compound 10, niclosamide] | ++++ | +++ | decreases PD-1 protein levels; also recorded: lower PD-1 protein levels | EC50 (PD1-GFP [2]): 3 µM; phospho-Erk1/2 levels by western blot (phospho-Erk1/2): lower phospho-Erk1/2 levels; PD1-GFP internalization in confocal images (PD1-GFP [1]; 10 μM, 6 h, FIG. 1): internalized PD1-GFP vesicles; PDL1-GFP vesicles in confocal images (PDL1-GFP): aggregated PDL1-GFP vesicles; PD-1 protein levels by western blot at 6 hours (PD-1; 6 hrs, 4T1 cells stably expressing PD-1, FIG. 8): decreases PD-1 protein levels; CTLA4-GFP vesicles in confocal images (CTLA4-GFP; 10 μM, 6 h, 37° C., FIG. 3): aggregated CTLA4-GFP vesicles; Internalized CTLA4-GFP punctate; 6 hr (10 μM) (CTLA4-GFP; 6 hr): +++
11 | O=C(Nc1ncc([N+](=O)[O-])s1)c1ccccc1O [Compound 11] | ++ |  |  | 
12 | CC(=O)Oc1ccccc1C(=O)Nc1ncc([N+](=O)[O-])s1 [Compound 12, nitazoxanide] | ++ | + | lower PD-1 and phopho-Erk1/2 protein levels | phospho-Erk1/2 levels by western blot (phospho-Erk1/2): lower PD-1 and phopho-Erk1/2 protein levels
13 | CCCCc1oc2ccccc2c1C(=O)c1cc(I)c(OCCN(CC)CC)c(I)c1 [Compound 13] | +++ |  |  | Decrease in PD1 protein level by western blot at 4 days at 3 μM (PD-1): ++
14 | CC[C@@H](C(=O)[C@@H](C)[C@@H](O)[C@H](C)CCc1ccc(C)c(O)c1C(=O)O)[C@H]1O[C@](CC)([C@H]2CC[C@](O)(CC)[C@H](C)O2)C[C@@H]1C [Compound 14, lasalocid] | ++++ | ++ | lower PD-1 protein levels | phospho-Erk1/2 levels by western blot (phospho-Erk1/2): lower phospho-Erk1/2 levels
15 | CC(NCCC(c1ccccc1)c1ccccc1)c1ccccc1 (centres unmarked) [Compound 15] | ++ |  |  | 
16 | CCN(CC)CCCC(C)Nc1c2ccc(Cl)cc2nc2ccc(OC)cc12 (centres unmarked) [Compound 16] | +++ |  |  | 
17 | COc1ccc2cc1Oc1ccc(cc1)C[C@H]1c3cc(c(OC)cc3CCN1C)Oc1c(OC)c(OC)cc3c1[C@H](C2)N(C)CC3 [Compound 17] | +++ |  |  | Decrease in PD1 protein level by western blot at 4 days at 3 μM (PD-1): ++
18 | Cc1cc(/C=C/c2ccc3cc(N(C)C)ccc3[n+]2C)c(C)n1-c1ccccc1 [Compound 18] | ++++ |  |  | Decrease in PD1 protein level by western blot at 4 days at 3 μM (PD-1): +++
19 | CCN(CC)CCCC(C)Nc1ccnc2cc(Cl)ccc12 (centres unmarked) [Compound 19] | +++ |  |  | 
20 | CCCCc1oc2ccccc2c1C(=O)c1cc(I)c(OCCN(CC)CC)c(I)c1 [amiodarone] |  |  |  | PD-1 protein levels by western blot after 4 days (PD-1): lower PD-1 protein levels
